Consider ten compounds from patent US20210261561A1, “BICYCLIC HETEROCYCLE DERIVATIVES HAVING SELECTIVE BACE1 INHIBITORY ACTIVITY” (SHIONOGI & CO., LTD., priority 2018, published 2021).

Each structure is given as a SMILES string.

One series addresses T1, CYP3A4 (Homo sapiens, UniProt P08684).
T1 construct: from tissue; host or cells: pooled human liver microsomes
The series can be described thus: CYP3A4(MDZ) MBI test (Test Example 4-2). The following applies: pooled human liver microsomes, 10 μmol/L MDZ, pre-reaction 0 or 30 minutes; shifted IC value. The series is classed as in vitro ADME. The procedure:
CYP3A4(MDZ) MBI test is a test of investigating mechanism based inhibition (MBI) potential on CYP3A4 inhibition of a compound. CYP3A4 inhibition is evaluated using 1-hydroxylation reaction of midazolam (MDZ) by pooled human liver microsomes as a marker reaction.
The reaction conditions were as follows: substrate, 10 μmol/L MDZ; pre-reaction time, 0 or 30 minutes; substrate reaction time, 2 minutes; reaction temperature, 37° C.; protein content of pooled human liver microsomes, 0.5 mg/mL at pre-reaction time, […] (at 10-fold dilution) at reaction time; concentrations of the compound of the present invention, 1, 5, 10, 20 μmol/L (4 points).
Pooled human liver microsomes in a K-Pi buffer (pH 7.4) and a compound of the present invention solution as a pre-reaction solution were added to a 96-well plate at the composition of the pre-reaction. A part of pre-reaction solution was transferred to another 96-well plate, and diluted 10-fold by a substrate in a K-Pi buffer. NADPH as a co-factor was added to initiate the marker reaction (without preincubation). After a predetermined time of the marker reaction, methanol/acetonitrile=1/1 (v/v) solution was added in order to terminate the marker reaction. On the other hand, NADPH was also added to a remaining pre-reaction solution in order to initiate a pre-reaction (with preincubation). After a predetermined time of a pre-reaction, a part was transferred to another 96-well plate, and diluted 10-fold by a substrate in a K-Pi buffer in order to initiate the marker reaction. After a predetermined time of the marker reaction, methanol/acetonitrile=1/1 (v/v) solution is added in order to terminate the marker reaction. After centrifuged at 3000 rpm for 15 minutes, 1-hydroxymidazolam in the supernatant is quantified by LC/MS/MS.
The sample adding DMSO to a reaction system instead of compound of the present invention solution was adopted as a control (100%) because DMSO is used as a solvent to dissolve a compound of the present invention. Remaining activity (%) was calculated at each concentration of the compound of the present invention added as the solution, and IC50 value was calculated by reverse-presumption using a logistic model with a concentration and an inhibition rate. Shifted IC value was calculated as “IC value without preincubation (0 minutes)/IC value with preincubation (30 minutes)”. When a shifted IC value was 1.5 or more, this was defined as positive. When a shifted IC value was less than 1.1, this was defined as negative.

Series [1] concerns the target T2, BACE1 (Homo sapiens, UniProt P56817). The series can be described thus: BACE1 biochemical FRET based assay (Test Example 2-1). The following applies: for selectivity: BACE2 IC50 over BACE1 IC50 (FRET); for IC50: FRET, 0.04 μg/mL BACE1, 450 minutes, Citrate buffer pH 5.0. Summed up: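 FRET cleavage of 13-mer APP Swedish-mutant peptide (Mca donor/Dnp quencher, […]) by recombinant BACE1 (0.04 μg/mL final), 450 min at room temperature in 33.3 mM citrate pH 5.0, 0.033% PEG, 3% DMSO. Fluorescence (ex 320/em 405 nm) read as T450 minus Tx (0–120 min); IC50 from curve fit of % control.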

Series [2] deals with Abeta 1-37, Abeta 1-38, Abeta 1-40 and Abeta 1-42 in cerebrospinal fluid (CSF). The series can be described thus: Pharmacology in the beagle dog, beta-amyloid profile in CSF (Test Example 18-1). The series is classed as in vivo. The procedure:
(§1) Test compounds were tested to evaluate the effect on the beta-amyloid profile in cerebrospinal fluid (CSF) of dogs after a single dose, in combination with pharmacokinetic (PK) follow up and limited safety evaluation.
In the case of compounds shown below, two beagle dogs (1 male, 1 female) were dosed with vehicle (1 mL/kg of an aqueous solution of 20% cyclodextrin) and 4 beagle dogs (2 males and 2 females) were dosed with test compound at the doses indicated in the following Table in an aqueous 20% cyclodextrin solution with a concentration in mg/mL identical to the dose given in mg/kg) on an empty stomach.
(§2) CSF was taken in conscious animals directly from the lateral ventricle via a cannula which was screwed in the skull and covered with subcutaneous tissue and skin, before and at 4, 8, 25 and 49 hours after dosing. Eight hours after dosing the animals got access to their regular meal for 30 minutes. Blood was taken for PK follow up (0.5, 1, 2, 4, 8, 25 and 49 hours) and serum samples for biochemistry were taken before and at 8 and 25 h after dosing. The CSF samples were used for measurement of Abeta 1-37, Abeta 1-38, Abeta 1-40 and Abeta 1-42.

Series [3] deals with T3, BACE2 (Homo sapiens, UniProt Q9Y5Z0).
T3 sequence (Q9Y5Z0 63-518): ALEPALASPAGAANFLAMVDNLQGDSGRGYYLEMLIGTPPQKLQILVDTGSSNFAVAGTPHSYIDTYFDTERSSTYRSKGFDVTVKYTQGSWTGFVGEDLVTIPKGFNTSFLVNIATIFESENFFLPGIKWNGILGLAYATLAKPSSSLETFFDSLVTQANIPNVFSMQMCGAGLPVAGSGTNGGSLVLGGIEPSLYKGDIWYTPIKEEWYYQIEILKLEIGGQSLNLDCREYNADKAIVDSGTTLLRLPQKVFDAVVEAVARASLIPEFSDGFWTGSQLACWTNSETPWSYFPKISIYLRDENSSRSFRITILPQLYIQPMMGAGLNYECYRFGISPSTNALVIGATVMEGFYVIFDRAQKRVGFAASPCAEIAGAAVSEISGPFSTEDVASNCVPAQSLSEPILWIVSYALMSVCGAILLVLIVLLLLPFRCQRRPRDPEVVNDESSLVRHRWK
The series can be described thus: BACE2 biochemical FRET based assay (Test Example 2-1 (2)). The conditions noted are these: 0.4 μg/mL BACE2, 450 minutes, Citrate buffer pH 5.0. Summed up:
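Recombinant human BACE2 (0.4 μg/mL final) was incubated 450 min at room temperature with 10 μM Mca/Dnp-quenched Swedish-APP FRET substrate in 33.3 mM citrate pH 5.0, 0.033% PEG, 2% DMSO. Fluorescence (ex 320/em 405 nm) was taken as the T450 minus T0 difference. IC50 came from least-squares fit of % control.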

Series [4] concerns the target T3, BACE2. The series can be described thus: BACE2 biochemical FRET based assay (Test Example 2-4). The following applies: recombinant BACE2 0.4 μg/mL, 10 μM substrate, 450 minutes, pH 5.0; read-out: BACE2 Biochemical FRET based assay pIC50 (converted). Summed up: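 Recombinant BACE2 (0.4 μg/mL final) incubated 450 min at room temperature with 10 μM Swedish-mutant APP Mca/Dnp FRET substrate in 33.3 mM citrate pH 5.0, 0.033% PEG, 2% DMSO. Fluorescence (ex 320/em 405 nm) difference between T0 and T450; % inhibition versus no-enzyme and full-enzyme controls, IC50 by non-linear regression.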

The test system of series [5] is Abeta 1-37, Abeta 1-38, Abeta 1-40 and Abeta 1-42 in cerebrospinal fluid (CSF). The series can be described thus: Pharmacology in the beagle dog, beta-amyloid profile in CSF (Test Example 18-2). The class given is in vivo. The following applies: single dose 0.63 mg/kg. As for the experimental part:
as §1
For each of compound II-6 or II-10, four beagle dogs (2 males, 2 females) were dosed with vehicle (1 mL/kg of an aqueous solution of 20% cyclodextrin) and 12 beagle dogs (2 males and 2 females per dosage group) were dosed with test compounds as follows:
In the case of compounds II-2, II-3 and II-18, two beagle dogs (1 male, 1 female) were dosed with vehicle (1 mL/kg of an aqueous solution of 20% cyclodextrin) and 4 beagle dogs (2 males and 2 females) were dosed with test compound (II-2, II-3, or II-18) at the doses indicated in the following Table in an aqueous 20% cyclodextrin solution with a concentration in mg/mL identical to the dose given in mg/kg) on an empty stomach.
as §2

For series [6], the target named is T2, BACE1. The series can be described thus: BACE1 cellular αLisa assay in SKNBE2 cells, Abeta 1-42 (Test Example 2-3). The class given is cell-based. More on the design: endogenous in cells; host or cells: SKNBE2 human neuroblastoma cells expressing hAPP695. The following applies: SKNBE2 cells expressing hAPP695, 18 hours incubation, read-out: Cellular αLisa assay in SKNBE2 cells Abeta 42 pIC50 (converted). Summed up:
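SKNBE2 neuroblastoma cells expressing wild-type hAPP695 incubated with compound for 18 h. Secreted Abeta 1-42 quantified by sandwich αLisa (AbN/25 donor, cAb42/26 acceptor beads), read after 1 h (ex 650, em 615 nm). IC50 from non-linear regression of % inhibition normalised to low and high controls.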

Series [7] addresses T2, BACE1. The series can be described thus: BACE1 biochemical FRET based assay - Method 1 (Test Example 2-2). The following applies: 0.04 μg/mL BACE1, 450 minutes, Citrate buffer pH 5.0, read-out: BACE1 Biochemical FRET based assay - Method 1 PIC50 (converted). Summed up:
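FRET cleavage of a 13-mer APP Swedish-mutant peptide (Mca/Dnp, 20 μm) by BACE1 at 0.04 μg/mL final, 450 min at room temperature in 33.3 mM citrate pH 5.0, 0.033% PEG, 3% DMSO. Fluorescence (ex 320/em 405 nm) taken as T450 minus Tx (0–120 min); % inhibition normalized to no-enzyme and enzyme controls, IC50 by non-linear regression.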

[8] abbreviates: single dose 5 mg/kg, relevant decrease = >20% decrease.
Setting [9] is: single dose 10 mg/kg, relevant decrease = >20% decrease.

T2 sequence (P56817 46-501): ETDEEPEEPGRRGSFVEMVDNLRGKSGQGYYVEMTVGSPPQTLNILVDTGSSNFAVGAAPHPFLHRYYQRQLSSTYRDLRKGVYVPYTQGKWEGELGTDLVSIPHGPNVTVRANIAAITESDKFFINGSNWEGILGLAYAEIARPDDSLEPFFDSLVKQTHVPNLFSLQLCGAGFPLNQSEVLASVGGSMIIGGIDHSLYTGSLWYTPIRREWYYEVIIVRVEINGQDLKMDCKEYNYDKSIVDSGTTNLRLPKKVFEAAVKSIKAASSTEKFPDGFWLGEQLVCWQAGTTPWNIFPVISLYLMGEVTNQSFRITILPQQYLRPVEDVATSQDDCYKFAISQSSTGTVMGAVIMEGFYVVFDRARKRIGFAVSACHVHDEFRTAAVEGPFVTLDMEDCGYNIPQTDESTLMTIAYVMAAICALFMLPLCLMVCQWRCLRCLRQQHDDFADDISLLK
T1 sequence (P08684 whole entry): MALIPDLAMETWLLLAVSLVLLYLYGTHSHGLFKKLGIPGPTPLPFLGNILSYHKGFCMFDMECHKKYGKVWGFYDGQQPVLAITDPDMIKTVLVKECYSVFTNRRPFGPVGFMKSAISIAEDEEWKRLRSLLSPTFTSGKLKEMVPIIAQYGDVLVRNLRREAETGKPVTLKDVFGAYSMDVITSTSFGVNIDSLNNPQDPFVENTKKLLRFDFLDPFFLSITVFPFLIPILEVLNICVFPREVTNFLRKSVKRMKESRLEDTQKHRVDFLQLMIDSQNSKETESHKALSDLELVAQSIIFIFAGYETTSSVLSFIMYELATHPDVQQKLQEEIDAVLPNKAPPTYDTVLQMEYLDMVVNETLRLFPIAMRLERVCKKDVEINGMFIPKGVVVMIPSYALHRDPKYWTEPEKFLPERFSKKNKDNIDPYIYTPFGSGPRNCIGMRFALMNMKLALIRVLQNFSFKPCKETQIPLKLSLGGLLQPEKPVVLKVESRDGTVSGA

Take `CN1C(N)=N[C@](C)(c2cc(NC(=O)c3cc4c(cn3)OC(F)(F)CO4)ccc2F)CS1(=O)=O` [Compound I-011]: on CYP3A4, the “MBI MDZ” value is “Negative”. The same compound registered a selectivity on BACE1 [1] of 15.9. The values for the IC50 against BACE1 [1] and against BACE2 [3] were 1.2 nM and 18.6 nM, respectively. Also, the “% Decrease in Abeta 1-42 at 8 h post dosing compared to own baseline” value in series [2] (single dose 5 mg/kg) was −54%; in series [2] (single dose 10 mg/kg) it was −74%. Moreover, the “% Decrease in Abeta 1-42 at 25 h post dosing compared to own baseline” value in series [2] (setting [8]) is on record as −37%; in series [2] (setting [9]) it was −77%. Besides, in series [2] (single dose 10 mg/kg, 49 h, relevant decrease = >20% decrease), the “% Decrease in Abeta 1-42 at 49 h post dosing compared to own baseline” value was −30%.
Regarding `CN1C(N)=N[C@](C)(c2cc(NC(=O)c3cc4c(cn3)OC(F)(F)O4)ccc2F)CS1(=O)=O` [Compound I-012], the “MBI MDZ” value at CYP3A4 was “Negative”. On BACE1 [1], this compound yielded a selectivity of 18.7 and an IC50 of 2.9 nM. Also, at BACE2 [3], the IC50 came out at 53.7 nM.
Regarding `CC1(C)C(N)=N[C@](C)(c2cc(NC(=O)c3cc4c(cn3)OC(F)(F)CO4)ccc2F)CS1(=O)=O` [Compound I-024], the “MBI MDZ” value at CYP3A4 is “Negative”. The entries for the “% Decrease in Abeta 1-42 at 8 h post dosing compared to own baseline” value in series [2] (single dose 0.63 mg/kg) and in series [2] (single dose 2.5 mg/kg) were −40% and −66%, respectively.
Take `[2H]C1([2H])Oc2cnc(C(=O)Nc3ccc(F)c([C@]4(C)CS(=O)(=O)C(C)(C)C(N)=N4)c3)cc2OC1([2H])[2H]` [Compound I-026]: the “MBI MDZ” value on CYP3A4 is reported as “Negative”.
With `CC1(C)C(N)=N[C@](C)(c2cc(NC(=O)c3cc4c(cn3)OC(F)(F)O4)ccc2F)CS1(=O)=O` [Compound I-027], on CYP3A4, the “MBI MDZ” value was “Negative”.
As for `NC1=N[C@](CF)(c2cc(NC(=O)c3cc4c(cn3)OC(F)(F)CO4)ccc2F)[C@H]2COCC[C@H]2O1` [Compound I-035], the “MBI MDZ” value on CYP3A4 was “Negative”. Moreover, the selectivity on BACE1 [1] is 301. For the same compound, the values for the IC50 at BACE1 [1] and against BACE2 [3] were 2.2 nM and 661 nM, respectively. In addition, the results for the “% Decrease in Abeta 1-42 at 8 h post dosing compared to own baseline” value in [2] (single dose 2.5 mg/kg), in [2] (single dose 5 mg/kg) and in series [2] (single dose 10 mg/kg) were −52%, −63% and −82%, respectively. The figures for the “% Decrease in Abeta 1-42 at 25 h post dosing compared to own baseline” value in series [2] (setting [8]) and in [2] (setting [9]) were −27% and −28%, respectively.
Consider `NC1=N[C@](CF)(c2cc(NC(=O)c3cc4c(cn3)OC(F)(F)O4)ccc2F)[C@H]2COCC[C@H]2O1` [Compound I-036], for which the “MBI MDZ” value at CYP3A4 was “Negative”. At BACE1 [1], this compound returned a selectivity of 166 and an IC50 of 13.2 nM. This compound also returned an IC50 on BACE2 [3] of 2190 nM.
On the same counts, the results for `NC1=N[C@](CF)(c2cc(NC(=O)c3cc4c(cn3)OC(F)(F)CO4)ccc2F)[C@H]2CCOC[C@H]2O1` [Compound I-046] are “Negative”, 263, 8.32 nM and 2190 nM.
The like results for `C[C@H]1OC[C@H]2[C@@H]1OC(N)=N[C@]2(CF)c1cc(NC(=O)c2cc3c(cn2)OC(F)(F)CO3)ccc1F` [Compound I-049] were, in that order, “Negative”, 136, 3.6 nM and 490 nM.
Regarding `CC1(S(C)(=O)=O)CCC(CF)(c2cc(NC(=O)c3cc4c(cn3)OC(F)(F)O4)cc(F)c2F)N=C1N` (stereo not drawn) [II-18], the melting point (as a rule, the temperature of the solid-liquid transition) was 195 °C. For the same compound, at BACE2 [4], the IC50 is 240 nM. In [5] (8 h), the “% Decrease in Abeta 1-42 at 8 h post dosing compared to own baseline” value was 53%. In series [5] (24 h or 25 h), the “% Decrease in Abeta 1-42 at 24 h^(a) or 25 h^(b) post dosing compared to own baseline” value is given as 27%. In addition, the IC50 at BACE1 [6] was 4.47 nM. The IC50 at BACE1 [7] is 3.24 nM.
